Where “and” joins values, the source holds several entries; their conditions need not be identical. Identical values can stand only once. Inconclusive results and toxic doses are left out.

The record followed here is PubChem BioAssay AID248 (DTP/NCI, 2004).

The test system of this assay is L1210 leukemia ip in BDF1 mice, survival T/C. Description: NCI In Vivo Anticancer Drug Screen. Data for tumor model L1210 Leukemia (intraperitoneal) in B6D2F1 (BDF1) mice. To be noted: endpoint: mean survival time, higher = longer survival. A digest of the protocol: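 Ratio derived from survival: compound-dosed mice over vehicle-dosed mice, all bearing a transplantable tumor.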

[1] abbreviates: dose: 100.0 mg/kg/injection, schedule: Q01DX009 (ip), vehicle: saline.
Where [2] appears, read: dose: 200.0 mg/kg/injection, schedule: Q01DX009 (ip), vehicle: saline.
Where [3] appears, read: dose: 100.0 mg/kg/injection, schedule: Q04DX003 (ip), vehicle: saline with Tween-80.
Setting [4] is: dose: 200.0 mg/kg/injection, schedule: Q04DX003 (ip), vehicle: saline with Tween-80.
[5] abbreviates: dose: 400.0 mg/kg/injection, schedule: Q04DX003 (ip), vehicle: saline with Tween-80.
Setting [6] is: dose: 50.0 mg/kg/injection, schedule: Q01DX009 (ip), vehicle: saline.
[7] abbreviates: dose: 100.0 mg/kg/injection, schedule: Q01DX009 (ip), vehicle: saline with Tween-80.
The mark [8] stands for this setting: dose: 200.0 mg/kg/injection, schedule: Q01DX009 (ip), vehicle: saline with Tween-80.
Setting [9] is: dose: 400.0 mg/kg/injection, schedule: Q01DX009 (ip), vehicle: saline with Tween-80.
The mark [10] stands for this setting: dose: 400.0 mg/kg/injection, schedule: Q01DX001 (ip), vehicle: carboxymethylcellulose (CMC).
Where [11] appears, read: dose: 50.0 mg/kg/injection, schedule: Q01DX009 (ip), vehicle: Klucel (hydroxypropylcellulose) (HPC).
[12] abbreviates: dose: 100.0 mg/kg/injection, schedule: Q01DX009 (ip), vehicle: Klucel (hydroxypropylcellulose) (HPC).

As to `FC(F)(F)c1nnnn1Cc1ccccc1`, the T/C reads like this: (dose: 50.0 mg/kg/injection, schedule: Q04DX002 (ip), vehicle: saline) 93 % of control; (dose: 100.0 mg/kg/injection, schedule: Q04DX002 (ip), vehicle: saline) 101 % of control; (dose: 200.0 mg/kg/injection, schedule: Q04DX002 (ip), vehicle: saline) 101 % of control.

Take `CCOC(=O)c1cc2cc(CC)ccc2[nH]1`: the T/C (dose: 100.0 mg/kg/injection, schedule: Q01DX001 (ip), vehicle: other) was 102 % of control; the T/C (dose: 200.0 mg/kg/injection, schedule: Q01DX001 (ip), vehicle: other) was 95 % of control; the T/C (dose: 400.0 mg/kg/injection, schedule: Q01DX001 (ip), vehicle: other) is 95 % of control.

As to `CN(CO)c1nc(N(C)CO)nc(N(C)CO)n1`, the T/C is 109 % of control (dose: 6.25 mg/kg/injection, schedule: Q01DX009 (ip), vehicle: saline); 113 % of control (dose: 12.5 mg/kg/injection, schedule: Q01DX009 (ip), vehicle: saline); 120 % of control (dose: 25.0 mg/kg/injection, schedule: Q01DX009 (ip), vehicle: saline); 166 % of control under setting [1]; 86 % of control under setting [2].

For `CCOC(CCC#N)c1ccc(C)cc1` (stereo not drawn), the T/C by setting is: under setting [3], 113 % of control; (dose: 118.0 mg/kg/injection, schedule: Q01DX009 (ip), vehicle: saline with Tween-80) 108 % of control; under setting [4], 98 % of control; (dose: 235.0 mg/kg/injection, schedule: Q01DX009 (ip), vehicle: saline with Tween-80) 97 % of control; under setting [5], 95 % of control.

With `CC([NH-])C(=O)O.O=C(O)CN(CC(=O)O)CC(=O)O.[Co+2]`, the T/C runs as follows: under setting [6], 110 % of control; under setting [1], 103 % of control; (dose: 100.0 mg/kg/injection, schedule: Q04DX003 (ip), vehicle: saline) 104 % of control; under setting [2], 93 % of control; (dose: 200.0 mg/kg/injection, schedule: Q04DX003 (ip), vehicle: saline) 106 % of control; (dose: 400.0 mg/kg/injection, schedule: Q04DX003 (ip), vehicle: saline) 100 % of control.

On to `Nc1ccc(Cc2ccc(N)c(Br)c2)cc1Br`, for which the T/C is, setting by setting: under setting [6], 102 % of control; (dose: 100.0 mg/kg/injection, schedule: Q01DX001 (ip), vehicle: saline) 93 % of control; under setting [1], 98 % of control; (dose: 200.0 mg/kg/injection, schedule: Q01DX001 (ip), vehicle: saline) 98 % of control.

Take `O=C1NC2CCC(NC(=O)N1c1ccccc1)C1=C2C1`: the T/C is 94 % of control (dose: 3.13 mg/kg/injection, schedule: Q01DX009 (ip), vehicle: saline with Tween-80); 90 % of control (dose: 6.25 mg/kg/injection, schedule: Q01DX009 (ip), vehicle: saline with Tween-80); 106 % of control (dose: 6.25 mg/kg/injection, schedule: Q04DX003 (ip), vehicle: saline with Tween-80); 97 % of control (dose: 12.5 mg/kg/injection, schedule: Q01DX009 (ip), vehicle: saline with Tween-80); 94 % of control (dose: 12.5 mg/kg/injection, schedule: Q04DX003 (ip), vehicle: saline with Tween-80).

Turning to `CC(C#N)CN1CC1` (stereo not drawn), the T/C (dose: 20.0 mg/kg/injection, schedule: Q01DX001 (ip), vehicle: Klucel (hydroxypropylcellulose) (HPC)) was 101 % of control.

For the molecule `CCN(C)c1cc2c3c(c1)CCCN3CCC2`, the T/C (dose: 5.0 mg/kg/injection, schedule: Q01DX009 (ip), vehicle: saline) was 103 % of control.

Turning to `O=c1cc(Cl)c(=O)[nH][nH]1`, the T/C is 100 % of control under setting [7]; 94 % of control under setting [3]; 100 % of control under setting [8]; 94 % of control under setting [4]; 114 % of control under setting [9]; 94 % of control under setting [5].

For the molecule `COc1ccc(C(=O)Nc2ccccc2)cc1N`, the T/C is 96 % of control (dose: 50.0 mg/kg/injection, schedule: Q01DX009 (ip), vehicle: carboxymethylcellulose (CMC)); 103 % of control (dose: 100.0 mg/kg/injection, schedule: Q01DX009 (ip), vehicle: carboxymethylcellulose (CMC)); 94 % of control (dose: 200.0 mg/kg/injection, schedule: Q01DX009 (ip), vehicle: carboxymethylcellulose (CMC)); 120 % of control under setting [10]; 100 % of control (dose: 400.0 mg/kg/injection, schedule: Q01DX009 (ip), vehicle: carboxymethylcellulose (CMC)); 114 % of control (dose: 600.0 mg/kg/injection, schedule: Q01DX001 (ip), vehicle: carboxymethylcellulose (CMC)). The T/C reads like this: (dose: 800.0 mg/kg/injection, schedule: Q01DX001 (ip), vehicle: carboxymethylcellulose (CMC)) 118 % of control; (dose: 1000.0 mg/kg/injection, schedule: Q01DX001 (ip), vehicle: carboxymethylcellulose (CMC)) 114 % of control.

As to `COc1cccc2c1C(=O)c1c(O)c3c(c(O)c1C2=O)CC(O)(C(C)=O)CC3OC1OC(COC(C)=O)C(OC(C)=O)C(OC(C)=O)C1NC(=O)C(F)(F)F` (stereo not drawn), the T/C (dose: 0.63 mg/kg/injection, schedule: Q01DX009 (ip), vehicle: Klucel (hydroxypropylcellulose) (HPC)) is 98 % of control; the T/C (dose: 1.25 mg/kg/injection, schedule: Q01DX009 (ip), vehicle: Klucel (hydroxypropylcellulose) (HPC)) was 91 % of control; the T/C (dose: 2.5 mg/kg/injection, schedule: Q01DX009 (ip), vehicle: Klucel (hydroxypropylcellulose) (HPC)) is 94 % of control; the T/C (dose: 5.0 mg/kg/injection, schedule: Q01DX009 (ip), vehicle: Klucel (hydroxypropylcellulose) (HPC)) is 97 % of control; the T/C (dose: 10.0 mg/kg/injection, schedule: Q01DX009 (ip), vehicle: Klucel (hydroxypropylcellulose) (HPC)) was 97 % of control.

`O=C(Nc1ccccc1C(F)(F)F)c1ccc(Cl)cc1Cl`: the T/C under setting [7] is 91 % of control; the T/C under setting [3] is 94 % of control; the T/C under setting [8] is 96 % of control; the T/C under setting [4] is 92 % of control; the T/C under setting [9] was 89 % of control; the T/C under setting [5] was 95 % of control.

Take `O=S1(=O)C(c2ccccc2)=C1c1ccccc1`: the T/C was 100 % of control (dose: 12.5 mg/kg/injection, schedule: Q01DX001 (ip), vehicle: other); 95 % of control (dose: 12.5 mg/kg/injection, schedule: Q01DX009 (ip), vehicle: other); 94 % of control and 100 % of control (dose: 25.0 mg/kg/injection, schedule: Q01DX001 (ip), vehicle: other); 101 % of control (dose: 25.0 mg/kg/injection, schedule: Q01DX009 (ip), vehicle: other); 97 % of control and 101 % of control (dose: 50.0 mg/kg/injection, schedule: Q01DX001 (ip), vehicle: other); 86 % of control (dose: 50.0 mg/kg/injection, schedule: Q01DX009 (ip), vehicle: other).

`CC12CC3CC(C)(C1)CC(Br)(C3)C2`: the T/C is, setting by setting: (dose: 50.0 mg/kg/injection, schedule: Q01DX001 (ip), vehicle: carboxymethylcellulose (CMC)) 104 % of control; (dose: 100.0 mg/kg/injection, schedule: Q01DX001 (ip), vehicle: carboxymethylcellulose (CMC)) 101 % of control; (dose: 200.0 mg/kg/injection, schedule: Q01DX001 (ip), vehicle: carboxymethylcellulose (CMC)) 113 % of control; under setting [10], 107 % of control.

For `O=[N+]([O-])c1cccnc1Cl`, the T/C is 107 % of control under setting [11]; 95 % of control under setting [12]; 92 % of control (dose: 100.0 mg/kg/injection, schedule: Q04DX003 (ip), vehicle: Klucel (hydroxypropylcellulose) (HPC)); 95 % of control (dose: 200.0 mg/kg/injection, schedule: Q01DX009 (ip), vehicle: Klucel (hydroxypropylcellulose) (HPC)); 91 % of control (dose: 200.0 mg/kg/injection, schedule: Q04DX003 (ip), vehicle: Klucel (hydroxypropylcellulose) (HPC)).

Turning to `CC(C)c1ccc(NC(=S)NCCO)cc1`, the T/C by setting is: (dose: 100.0 mg/kg/injection, schedule: Q04DX002 (ip), vehicle: Klucel (hydroxypropylcellulose) (HPC)) 105 % of control; (dose: 200.0 mg/kg/injection, schedule: Q04DX002 (ip), vehicle: Klucel (hydroxypropylcellulose) (HPC)) 105 % of control; (dose: 400.0 mg/kg/injection, schedule: Q04DX002 (ip), vehicle: Klucel (hydroxypropylcellulose) (HPC)) 105 % of control.

As to `CC1C=CC(c2ccccc2)C2C(=O)OC(=O)C12` (stereo not drawn), the T/C runs as follows: under setting [11], 111 % of control; under setting [12], 101 % of control.
